Results reported in US20100035848A1, “THERAPY FOR DISORDERS OF THE PROXIMAL DIGESTIVE TRACT” (priority 2008, published 2010).

What was measured:
[1] = tested on: gastric PGE2 synthesis; assay: Acute indomethacin-induced gastric toxicity in rats: gastric PGE2 synthesis; format: in vivo, rat; details: indomethacin 20 mg/kg p.o.
Description: A study was conducted to determine whether GL1001 would inhibit acute NSAID (indomethacin)-induced gastric toxicity in a rat model (Wallace et al. (1998) Gastroenterol. 115:101-109). Several modes of treatment with GL1001 or vehicle were employed, which included administration via drinking water, oral administration and subcutaneous administration as shown in Table 4. Irrespective of the route of drug or vehicle administration, male Wistar rats were deprived of food for 16 h prior to oral administration of 20 mg/kg indomethacin (Sigma) or vehicle (5% w/v sodium bicarbonate; 1 ml/kg). Three hours later the rats were sacrificed and the severity of gastric damage was blindly scored. This involved measurement of the lengths (in mm) of all hemorrhagic erosions and summing these to give a “gastric damage score” for each stomach. Samples of the stomach were taken for measurement of prostaglandin E2 (PGE2) synthesis as described by Wallace et al. (1998), supra, and myeloperoxidase activity as described by Souza et al. (2003) Am. J. Physiol. 285:[…]-61. Myeloperoxidase is an enzyme found in all cells of mycloid origin, but particularly enriched within neutrophils. It is therefore used as a biochemical marker of granulocyte infiltration into tissue. Each group consisted of 6 rats. As a negative control, one group received vehicle pretreatments (in the drinking water and by oral gavage) and then received vehicle instead of indomethacin. […] [table] In the experiments where GL1001 (or vehicle) was added to drinking water, the rats were provided with the modified drinking water for 2 days prior to administration of indomethacin (or vehicle). This included the period when the rats were deprived of food. GL1001 was prepared in 0.1M citrate buffer before being added to the drinking water. Based on average water consumption by rats, this was aimed at providing a daily dose of GL1100 of 1200 mg/kg (water consumption was monitored for several days prior to initiation of the study). Oral or subcutaneous administration of GL1001 (or vehicle) was performed 30 minutes prior to administration of indomethacin. Data are expressed as mean±SEM. When two groups of data were compared, a Student's t-test was used. When more than two groups of data were compared, a one-way analysis of variance followed by the Newman-Keuls test was used. An associated probability of less than 5% was considered statistically significant.

[2] = tested on: LPS-induced NF-κB dependent transcription; assay: In vivo imaging of LPS-induced NF-κB dependent transcription in NF-κB::Luc mice; design: species or system mouse
Text: More particularly, transgenic NF-κB::Luc mice were generated using three NF-κB response elements from the Igκ light chain promoter fused to a firefly luciferase gene as described by Carlsen et al. (2002) J. Immunol. 168:1441-1446. Pronuclear microinjection of purified construct DNA was used to generate transgenic founders in the C57BL/6 XCBA/J background. Founders were subsequently back-crossed to the C57BL/6 albino background. All experimental protocols were approved by the Institutional Animal Care and Use Committee and conform to the ILAR guide for the care and used of laboratory animals. For in vivo imaging, NF-κB::Luc mice were injected intraperitoneally with luciferin (150 mg/1 kg) 10 minutes before imaging, anesthetized (using 1-3% isoflurane) and placed into a light-tight camera box. […] Signal data were also quantitated and archived using the Living Image® software. Photons of light were quantitated using an oval region of interest (ROI) of varying sizes depending on the procedure, as described further below.
GL1001 was further tested for in vivo anti-inflammatory activity by examining its effects on bacterial LPS-induced NF-κB dependent transcription in NF-κB::Luc mice. […] Mice were subjected to quantitative abdominal imaging at 2, 4 and 6 hours following LPS administration, as described above. […] Luciferase signal was quantitated from several regions of interest. […]

[3] = tested on: LPS-induced NF-κB-dependent transcription; assay: Luciferase assay of organs extracted from LPS-treated NF-κB::Luc mice; format: in vivo, mouse
Text: For luciferase assays, organs were extracted and snap-frozen in liquid nitrogen. All tissue samples were placed in lysis buffer with inhibitors (Passive Lysis Buffer (Promega) and Complete Mini Protease Inhibitor Cocktail (Roche, Indianapolis, Ind.)), and were homogenized using a Handishear hand-held tissue homogenizer (VirTis, Gardiner, N.Y.). Tissue homogenates were centrifuged and clarified lysates were used for luminometer assays and western blots. For the luminometer assays, Luciferase Assay Substrate (Luciferase Assay System, Promega) was prepared as indicated by the manufacturer and placed in disposable cuvettes. […] Background luminescence readings were obtained and the background readings were subtracted from the luminescent data. Protein concentrations were determined using the BCA Protein Assay Kit (Pierce, Rockford, Ill.) following the manufacturer's protocols and analyzed using a VERSAmax tunable microplate reader and associated Softmax Pro version 3.1.2 software (Molecular Devices, Sunnyvale Calif.). The luminescence for each of the protein lysates was calculated as arbitrary units of light per microgram of protein. […]
GL1001 was further tested for in vivo anti-inflammatory activity by examining its effects on bacterial LPS-induced NF-κB dependent transcription in NF-κB::Luc mice. […] Luciferase signal was quantitated from several regions of interest. […]

Structure (SMILES): CC(C)C[C@H](N[C@@H](Cc1cncn1Cc1cc(Cl)cc(Cl)c1)C(=O)O)C(=O)O [GL1001, (S,S)-2-[1-carboxy-2-[3-(3,5-dichlorobenzyl)-3H-imidazol-4-yl]-ethylamino]-4-methylpentanoic acid]
- Gastric PGE2 synthesis ([1]; Group A: GL1001 in drinking water, vehicle Group B 3.83 ± 0.98): 5.31 ± 1.54 ng/mg
- Gastric PGE2 synthesis ([1]; Group C: GL1001 p.o. and in drinking water, vehicle Group D 3.07 ± 0.55): 2.37 ± 0.51 ng/mg
- Gastric PGE2 synthesis ([1]; Group F: GL1001 s.c. and in drinking water, vehicle Group G 3.60 ± 0.32): 3.57 ± 0.59 ng/mg
- Gastric PGE2 synthesis ([1]; Group H: GL1001 p.o., vehicle Group I 6.08 ± 1.00): 4.44 ± 0.40 ng/mg
- LPS induced NF-κB signaling response, abdominal region ([2]; GL1001 30, 100 and 300 mg/kg s.c. 1 hour before LPS i.v., FIG. 3): significantly reduced
- LPS-induced NF-κB signaling, abdominal region ([2]; repeat with dose range 3-100 mg/kg s.c., effect at 30 and 100 mg/kg, FIG. 4): significantly reduced
- reduction of LPS-induced NF-κB-dependent transcription in stomachs ([3]; 0.5 mg/kg LPS and GL1001 30 mg/kg vs LPS alone, FIG. 5): about 37 fold
- decrease in LPS-induced NF-κB signaling in other organs ([3]; 0.5 mg/kg LPS and GL1001 30 mg/kg, pancreas, uterus, liver, kidney, spleen, small and large intestine, lymph nodes, cecum, ovary, brain, heart, lung): no statistically significant decrease
